# Laboratory results from patent publication US20240376099A1, “COMPOUNDS AND COMPOSITIONS AS INHIBITORS OF ENDOSOMAL TOLL-LIKE RECEPTORS” (Novartis AG, priority 2016, published 2024).
# Target: T1, TLR7 (Homo sapiens, UniProt Q9NYK1)
# T1 construct: Fresh blood was collected from normal human donors; endogenous in cells; host or cells: human PBMCs from fresh donor blood
# T1 sequence (Q9NYK1 27-1049): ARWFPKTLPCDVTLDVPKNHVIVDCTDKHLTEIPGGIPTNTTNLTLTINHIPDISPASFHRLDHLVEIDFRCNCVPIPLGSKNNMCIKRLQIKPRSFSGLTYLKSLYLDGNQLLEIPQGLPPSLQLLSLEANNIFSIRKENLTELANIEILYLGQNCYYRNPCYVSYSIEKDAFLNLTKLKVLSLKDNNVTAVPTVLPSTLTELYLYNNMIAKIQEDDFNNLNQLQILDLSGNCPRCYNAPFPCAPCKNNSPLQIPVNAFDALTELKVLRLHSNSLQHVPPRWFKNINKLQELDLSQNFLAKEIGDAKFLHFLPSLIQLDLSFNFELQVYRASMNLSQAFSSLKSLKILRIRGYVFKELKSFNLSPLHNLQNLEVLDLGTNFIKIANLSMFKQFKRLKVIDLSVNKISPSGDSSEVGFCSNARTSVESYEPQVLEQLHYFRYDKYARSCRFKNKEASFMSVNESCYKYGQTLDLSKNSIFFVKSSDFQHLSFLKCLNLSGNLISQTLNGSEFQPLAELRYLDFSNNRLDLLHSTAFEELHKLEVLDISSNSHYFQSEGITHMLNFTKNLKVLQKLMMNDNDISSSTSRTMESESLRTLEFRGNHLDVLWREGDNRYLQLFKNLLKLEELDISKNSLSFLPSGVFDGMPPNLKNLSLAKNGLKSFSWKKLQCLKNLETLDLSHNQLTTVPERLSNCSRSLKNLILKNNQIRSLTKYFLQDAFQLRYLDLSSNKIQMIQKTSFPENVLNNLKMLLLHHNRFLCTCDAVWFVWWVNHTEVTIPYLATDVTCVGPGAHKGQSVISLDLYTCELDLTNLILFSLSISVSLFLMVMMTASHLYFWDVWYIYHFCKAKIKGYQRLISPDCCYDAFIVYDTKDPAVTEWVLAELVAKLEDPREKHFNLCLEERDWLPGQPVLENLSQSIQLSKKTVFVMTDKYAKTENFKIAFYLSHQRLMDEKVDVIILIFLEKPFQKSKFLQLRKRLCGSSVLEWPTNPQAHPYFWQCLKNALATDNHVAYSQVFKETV
# Assay: huPBMC TLR7 Antagonist IFNα Assay
# Assay type: cell-based
# Details: human PBMCs stimulated with ssRNA40 10 μg/mL (DOTAP), 14-16 hrs; IFNα2b AlphaLISA read-out
# Procedure, shortened: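 Human PBMCs from fresh donor blood (150,000 cells/well) stimulated 14–16 h at 37 °C with DOTAP-complexed ssRNA40 (final 1 μg/ml for TLR8, 10 μg/mL for TLR7) or ODN2216 (final 0.3 μM, TLR9), 0.25% DMSO, ten-point 1/3 compound dilutions. Supernatant IL-6 read by HTRF (TLR8); IFNα by IFNα2b AlphaLISA (TLR7/TLR9).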
row,SMILES,IC50
1,"Cc1nc(N2CCc3c(c(C)nn3CC34CCC(N5CCCCC5)(CC3)CC4)C2)c2c(n1)c(C)nn2C [compound 38, 1,3,5-trimethyl-7-(3-methyl-1-((4-(piperidin-1-yl)bicyclo[2.2.2]octan-1-yl)methyl)-6,7-dihydro-1H-pyrazolo[4,3-c]pyridin-5(4H)-yl)-1H-pyrazolo[4,3-d]pyrimidine]",42 nM
2,"Cc1cc(N2CCc3c(c(C)nn3CC34CCC(NC5COC5)(CC3)CC4)C2)c2cnn(C)c2n1 [Compound No. 6, N-(4-((5-(1,6-dimethyl-1H-pyrazolo[3,4-b]pyridin-4-yl)-3-methyl-4,5,6,7-tetrahydro-1H-pyrazolo[4,3-c]pyridin-1-yl)methyl)bicyclo[2.2.2]octan-1-yl)oxetan-3-amine]",19 nM
3,"COCCNC12CCC(Cn3nc(C)c4c3CCN(c3ccnc(-c5ccccc5)c3)C4)(CC1)CC2 [compound 130, N-(2-methoxyethyl)-4-((3-methyl-5-(2-phenylpyridin-4-yl)-4,5,6,7-tetrahydro-1H-pyrazolo[4,3-c]pyridin-1-yl)methyl)bicyclo[2.2.2]octan-1-amine]",1330 nM
4,"Cc1cc(N2CCc3c(c(C)nn3CC34CCC(NCC(C)(C)O)(CC3)CC4)C2)c2cnn(C)c2n1 [compound 123, 1-((4-((5-(1,6-dimethyl-1H-pyrazolo[3,4-b]pyridin-4-yl)-3-methyl-4,5,6,7-tetrahydro-1H-pyrazolo[4,3-c]pyridin-1-yl)methyl)bicyclo[2.2.2]octan-1-yl)amino)-2-methylpropan-2-ol]",24 nM
5,"Cc1cc(N2CCc3c(c(C)nn3CC34CCC(N5CCO[C@H](C)C5)(CC3)CC4)C2)c2cnn(C)c2n1 [compound 107, (R)-4-(4-((5-(1,6-dimethyl-1H-pyrazolo[3,4-b]pyridin-4-yl)-3-methyl-4,5,6,7-tetrahydro-1H-pyrazolo[4,3-c]pyridin-1-yl)methyl)bicyclo[2.2.2]octan-1-yl)-2-methylmorpholine]",11 nM
6,"Cc1nc(N2CCc3c(c(C)nn3CC34CCC(N5CC6(COC6)C5)(CC3)CC4)C2)c2c(n1)c(C)nn2C [Compound No. 10, 6-(4-((3-methyl-5-(1,3,5-trimethyl-1H-pyrazolo[4,3-d]pyrimidin-7-yl)-4,5,6,7-tetrahydro-1H-pyrazolo[4,3-c]pyridin-1-yl)methyl)bicyclo[2.2.2]octan-1-yl)-2-oxa-6-azaspiro[3.3]heptane]",56 nM
7,"CCNCC(=O)NC12CCC(Cn3nc(C)c4c3CCN(c3cc(C)nc5c3cnn5C)C4)(CC1)CC2 [compound 114, N-(4-((5-(1,6-dimethyl-1H-pyrazolo[3,4-b]pyridin-4-yl)-3-methyl-4,5,6,7-tetrahydro-1H-pyrazolo[4,3-c]pyridin-1-yl)methyl)bicyclo[2.2.2]octan-1-yl)-2-(ethylamino)acetamide]",10 nM
8,"[2H]C([2H])([2H])N(CC(=O)NC12CCC(Cn3nc(C)c4c3CCN(c3cc(C)nc5c3cnn5C)C4)(CC1)CC2)C([2H])([2H])[2H] [compound 134, 2-(bis(trideuteromethyl)amino)-N-(4-((5-(1,6-dimethyl-1H-pyrazolo[3,4-b]pyridin-4-yl)-3-methyl-4,5,6,7-tetrahydro-1H-pyrazolo[4,3-c]pyridin-1-yl)methyl)bicyclo[2.2.2]octan-1-yl)acetamide]",1 nM
9,"Cc1nc(N2CCc3c(c(C)nn3CC34CCC(NC(=O)CCN(C)C)(CC3)CC4)C2)c2c(n1)c(C)nn2C [compound 24, 3-(dimethyalmino)-N-(4-((3-methyl-5-(1,3,5-trimethyl-1H-pyrazolo[4,3-d]pyrimidin-7-yl)-4,5,6,7-tetrahydro-1H-pyrazolo[4,3-c]pyridin-1-yl)methyl)bicyclo[2.2.2]octan-1-yl)propanamide]",201 nM
10,"Cc1nc(N2CCc3c(c(C)nn3CC34CCC(N(C5CCC5)C5CCC5)(CC3)CC4)C2)c2c(n1)c(C)nn2C [compound 28, N,N-dicyclobutyl-4-((3-methyl-5-(1,3,5-trimethyl-1H-pyrazolo[4,3-d]pyrimidin-7-yl)-4,5,6,7-tetrahydro-1H-pyrazolo[4,3-c]pyridin-1-yl)methyl)bicyclo[2.2.2]octan-1-amine]",840 nM
11,"Cc1nc(N2CCc3c(c(C)nn3CC34CCC(NCC5COC5)(CC3)CC4)C2)c2c(n1)c(C)nn2C [compound 23, 4-((3-methyl-5-(1,3,5-trimethyl-1H-pyrazolo[4,3-c]pyrimidin-7-yl)-4,5,6,7-tetrahydro-1H-pyrazolo[4,3-c]pyridin-1-yl)methyl)-N-(oxetan-3-ylmethyl)bicyclo[2.2.2]octan-1-amine]",666 nM
12,"Cc1nn(CC23CCC(N)(CC2)CC3)c2c1CN(c1nc(Cl)nc3cnn(C)c13)CC2 [compound 15, 4-((5-(5-chloro-1-methyl-1H-pyrazolo[4,3-d]pyrimidin-7-yl)-3-mehtyl-4,5,6,7-tetrahydro-1H-pyrazolo[4,3-c]pyridin-1-yl)methyl)bicyclo[2.2.2]octan-1-amine]",288 nM
13,"Cc1cc(N2CCc3c(c(C)nn3CC34CCC(N5CCOC[C@H]5C)(CC3)CC4)C2)c2cnn(C)c2n1 [compound 129, (R)-4-(4-((5-(1,6-dimethyl-1H-pyrazolo[3,4-b]pyridin-4-yl)-3-methyl-4,5,6,7-tetrahydro-1H-pyrazolo[4,3-c]pyridin-1-yl)methyl)bicyclo[2.2.2]octan-1-yl)-3-methylmorpholine]",8 nM
14,"Cc1nc(N2CCc3c(c(C)nn3CC34CCC(N5CCCCC5)(CC3)CC4)C2)c2cn[nH]c2n1 [compound 29, 6-methyl-4-(3-methyl-1-((4-(piperidin-1-yl)bicyclo[2.2.2]octan-1-yl)methyl)-6,7-dihydro-1H-pyrazolo[4,3-c]pyridin-5(4H)-yl)-1H-pyrazolo[3,4-d]pyrimidine]",73 nM
15,"Cc1cc(N2CCc3c(c(C)nn3CC34CCC(NC(=O)CN5CC(F)C5)(CC3)CC4)C2)c2cnn(C)c2n1 [Compound No. 133, N-(4-((5-(1,6-dimethyl-1H-pyrazolo[3,4-b]pyridin-4-yl)-3-methyl-4,5,6,7-tetrahydro-1H-pyrazolo[4,3-c]pyridin-1-yl)methyl)bicyclo[2.2.2]octan-1-yl)-2-(3-fluoroazetidin-1-yl)acetamide]",12 nM
16,"Cc1nc(N2CCc3c(c(C)nn3CC34CCC(N5CCOCC5)(CC3)CC4)C2)c2c(n1)c(C)nn2C [compound 25, 4-(4-((3-methyl-5-(1,3,5-trimethyl-1H-pyrazolo[4,3-d]pyrimidin-7-yl)-4,5,6,7-tetrahydro-1H-pyrazolo[4,3-c]pyridin-1-yl)methyl)bicyclo[2.2.2]octan-1-yl)morpholine]",565 nM
17,"Cc1cc(N2CCc3c(c(C)nn3CC34CCC(NCC(=O)N5CCCC5)(CC3)CC4)C2)c2cnn(C)c2n1 [compound 106, 2-((4-((5-(1,6-dimethyl-1H-pyrazolo[3,4-b]pyridin-4-yl)-3-methyl-4,5,6,7-tetrahydro-1H-pyrazolo[4,3-c]pyridin-1-yl)methyl)bicyclo[2.2.2]octan-1-yl)amino)-1-(pyrrolidin-1-yl)ethanone]",63 nM
18,"Cc1nc(N2CCc3c(c(C)nn3CC34CCC(NCC5(CO)COC5)(CC3)CC4)C2)c2c(n1)c(C)nn2C [compound 31, (3-(((4-((3-methyl-5-(1,3,5-trimethyl-1H-pyrazolo[4,3-d]pyrimidin-7-yl)-4,5,6,7-tetrahydro-1H-pyrazolo[4,3-c]pyridin-1-yl)methyl)bicyclo[2.2.2]octan-1-yl)amino)methyl)oxetan-3-yl)methanol]",13 nM
19,"Cc1cc(N2CCc3c(c(C)nn3CC34CCC(N5C[C@H](C)O[C@@H](C)C5)(CC3)CC4)C2)c2cnn(C)c2n1 [compound 111, (2S,6S)-4-(4-((5-(1,6-dimethyl-1H-pyrazolo[3,4-b]pyridin-4-yl)-3-methyl-4,5,6,7-tetrahydro-1H-pyrazolo[4,3-c]pyridin-1-yl)methyl)bicyclo[2.2.2]octan-1-yl)-2,6-dimethylmorpholine]",28 nM
20,"Cn1ncc2c(N3CCc4c(cnn4CC45CCC(N)(CC4)CC5)C3)nc(N)nc21 [compound 11, 4-(1-((4-aminobicyclo[2.2.2]octan-1-yl)methyl)-6,7-dihydro-1H-pyrazolo[4,3-c]pyridin-5(4H)-yl)-1-methyl-1H-pyrazolo[3,4-d]pyrimidin-6-amine]",318 nM
